Experimental data reported in patent US4843087A (priority 1986, dated 1989).
≈ marks a conversion by molar mass, not a printed value.

System: human rhinovirus (HRV) serotypes
Assay: microbe, parasite or virus in culture
Assay type: cell-based
Settings: for MIC50: read-out: Rhinovirus MIC50; for IC (MIC80 of serotype panel): read-out: Rhinovirus MIC80

| SMILES | MIC50 [µg/mL] | IC (MIC80 of serotype panel) [µg/mL] |
| --- | --- | --- |
| CC[C@@H]1COC(c2ccc(OCCCCCCCc3cc(C)no3)cc2)=N1 [Example 125, (R)-5-{7-[4-(4-Ethyl-4,5-dihydro-2-oxazolyl)phenoxy]heptyl}-3-methylisoxazole] | 0.69 (≈ 1.86 µM) | 2.3 |
| Cc1cc(CCCCCCCOc2ccc(C3=NC[C@H](C)O3)cc2)on1 [Example 122, (S)-5-{7-[4-(4,5-Dihydro-5-methyl-2-oxazolyl)phenoxy]heptyl}-3-methylisoxazole] | 0.24 (≈ 0.673 µM) | 50.3 |
| Cc1cc(CCCCCOc2c(Cl)cc(C3=NCCO3)cc2C(F)(F)F)on1 [155(c), 5-{5-[2-Chloro-4-(4,5-dihydro-2-oxazolyl)-6-(trifluoromethyl)phenoxy]pentyl}-3-methylisoxazole] | 0.11 (≈ 0.264 µM) | 0.56 |
| Cc1cc(CCCCCCCCOc2ccc(C3=NCCO3)cc2)on1 [18(b), 5-{8-[4-(4,5-Dihydro-2-oxazolyl)phenoxy]octyl}-3-methylisoxazole] | 1.75 (≈ 4.91 µM) | 2.1 |
| COCC1CN=C(c2ccc(OCCCCCCCc3cc(C)no3)cc2)O1 (stereo not drawn) [Example 40, 5-{7-[4-(4,5-Dihydro-5-methoxymethyl-2-oxazolyl)phenoxy]heptyl}-3-methylisoxazole] | 0.535 (≈ 1.38 µM) | 99 |
| C=CCC1COC(c2ccc(OCCCCCCCc3cc(C)no3)cc2)=N1 (stereo not drawn) [Example 139, 5-{7-[4-(4,5-Dihydro-4-(2-propenyl)-2-oxazolyl)phenoxy]heptyl}-3-methylisoxazole] | 0.795 (≈ 2.08 µM) | 25.9 |
| Cc1cc(CCCCCCCOc2ccc(C3=NCC(CO)O3)cc2)on1 (stereo not drawn) [Example 23, 5-{7-[4-(4,5-Dihydro-5-hydroxymethyl-2-oxazolyl)phenoxy]heptyl}-3-methylisoxazole] | 1.55 (≈ 4.16 µM) | 2.9 |
| Cc1cc(CCCCCOc2ccc(-c3nc(C)c(C)o3)cc2C(F)(F)F)on1 [Example 91, 5-{5-[4-(4,5-Dimethyl-2-oxazolyl)-2-trifluoromethylphenoxy]pentyl}-3-methylisoxazole] | 0.75 (≈ 1.84 µM) | 1.4 |
| Cc1cc(CCCCCCCOc2ccc(C3=NC(C)CO3)cc2Cl)on1 (stereo not drawn) [17(b), 5-{7-[2-Chloro-4-(4,5-dihydro-4-methyl-2-oxazolyl)phenoxy]heptyl}-3-methylisoxazole] | 0.89 (≈ 2.28 µM) | 26 |
| Cc1cc(CCCCOc2c(Cl)cc(-c3nc(C)c(C)o3)cc2Cl)on1 [Example 120, 5-{4-[2,6-Dichloro-4-(4,5-dimethyl-2-oxazolyl)phenoxy]butyl}-3-methylisoxazole] | 0.16 (≈ 0.405 µM) | 0.67 |
| Cc1cc(CCCCCCCOc2ccc(C3=NCC(CCl)O3)cc2)on1 (stereo not drawn) [Example 39, 5-{7-[4-(5-Choromethyl-4,5-dihydro-2-oxazolyl)phenoxy]heptyl}-3-methylisoxazole] | 0.87 (≈ 2.23 µM) | 99 |
| Cc1cc(CCCCCOc2ccc(C3=NC(C)(C)CO3)cc2Cl)on1 [Example 57, 5-{5-[2-Chloro-4-(4,5-dihydro-4,4-dimethyl-2-oxazolyl)phenoxy]pentyl}-3-methylisoxazole] | 50.1 (≈ 133 µM) | 99 |
| Cc1cc(CCCCCCCOc2ccc(C3=NC(C)(C)CO3)cc2)on1 [Example 5, 5-{7-[4-(4,5-Dihydro-4,4-dimethyl-2oxazolyl)phenoxy]heptyl}-3-methylisoxazole] | 1.3 (≈ 3.51 µM) | 99 |
| Cc1cc(CCCC(C)Oc2c(Cl)cc(C3=NCCO3)cc2Cl)on1 (stereo not drawn) [Example 110, 5-{4-[2,6-Dichloro-4-(4,5-dihydro-2-oxazolyl)phenoxy]pentyl}-3-methylisoxazole] | 0.24 (≈ 0.626 µM) | 0.64 |
| Cc1cc(CCCCCOc2ccc(C3=N[C@@H](C)CO3)cc2)on1 [Example 121, (S)-5-{5-[4-(4,5-Dihydro-4-methyl-2-oxazolyl)phenoxy]pentyl}-3-methylisoxazole] | 0.09 (≈ 0.274 µM) | 26 |
| Cc1cc(CCCCCOc2c(Cl)cc(C3=NCCCO3)cc2Cl)on1 [156(b)] | 0.705 (≈ 1.77 µM) | 28.6 |
| CCCCCCc1cc(CCOc2ccc(C3=N[C@@H](C)CO3)cc2)on1 [Example 132, (S)-5-{2-[4-(4,5-Dihydro-4-methyl-2-oxazolyl)phenoxy]ethyl}-3-hexylisoxazole] | 1.02 (≈ 2.88 µM) | 1.9 |
| Cc1cc(CCCCCCCOc2ccc(C3=N[C@H](C(C)C)CO3)cc2)on1 [Example 127, (R)-5-{7-[4-(4,5-Dihydro-4-isopropyl-2-oxazolyl)phenoxy]heptyl}-3-methylisoxazole] | 0.76 (≈ 1.98 µM) | 1.4 |
| Cc1cc(CCCCCCCCOc2ccc(C3=NC(C)CO3)cc2Cl)on1 (stereo not drawn) [27(b)] | 0.405 (≈ 1 µM) | 25.8 |
| Cc1cc(CCCCCCCOc2cccc(C3=NCCO3)c2)on1 [26(b), 5-{7-[3-(4,5-Dihydro-2-oxazolyl)phenoxy]heptyl}-3-methylisoxazole] | 0.94 (≈ 2.75 µM) | 1.12 |

| SMILES | MIC50 [µg/mL] | IC (MIC80 of serotype panel) [µg/mL] |
| --- | --- | --- |
| Cc1cc(CCCCCOc2c(Cl)cc(C(=O)NCCCCl)cc2Cl)on1 [156(a), 3,5-Dichloro-N-(3-chloropropyl)-4-{[5-(3-methyl-5-isoxazolyl)pentyl]oxy}benzamide] | 0.795 (≈ 1.83 µM) | 99 |
| Cc1cc(CCCCCOc2c(Cl)cc(C3=NC(CO)CO3)cc2Cl)on1 (stereo not drawn) [Example 138, 5-{5-[2,6-Dichloro-4-(4,5-dihydro-4-hydroxymethyl-2-oxazolyl)phenoxy]pentyl}-3-methylisoxazole] | 0.2 (≈ 0.484 µM) | 1.2 |
| Cc1cc(CCC=CCOc2ccc(C3=NCCO3)cc2)on1 [Example 55, 5-{5-[4-(4,5-Dihydro-2-oxazolyl)phenoxy]-3-pentenyl}-3-methylisoxazole] | 49.6 (≈ 159 µM) | 99 |
| OCCOCOCc1cc(CCCCCOc2c(Cl)cc(C3=NCCO3)cc2Cl)on1 [149(b), 5-{5-[2,6-Dichloro-4-(4,5-dihydro-2-oxazolyl)phenoxy]pentyl}-3-isoxazolylmethoxymethoxyethanol] | 0.13 (≈ 0.275 µM) | 1.1 |
| Cc1cc(CC/C=C\COc2c(Cl)cc(C3=NCCO3)cc2Cl)on1 [Example 112, 5-{5-[2,6-Dichloro-4-(4,5-dihydro-2-oxazolyl)phenoxy]-3-pentenyl}-3-methylisoxazole (Z-isomer)] | 0.079 (≈ 0.207 µM) | 0.74 |
| Cc1cc(CCCCCOc2c(Cl)cc(C3=NCCO3)cc2Cl)sn1 [150(b), 2-{3,5-Dichloro-4-[(5-(3-methyl-5-isothiazolyl)pentyl)oxy]phenyl}-4,5-dihydro-oxazole] | 0.12 (≈ 0.3 µM) | 0.35 |
| CCC[C@@H]1COC(c2ccc(OCCCCCCCc3cc(C)no3)cc2)=N1 [Example 129, (R)-5-{7-[4-(4,5-Dihydro-4-propyl-2-oxazolyl)phenoxy]heptyl}-3-methylisoxazole] | 1.33 (≈ 3.46 µM) | 2.6 |
| CCC[C@H]1COC(c2ccc(OCCCCCCCc3cc(C)no3)cc2)=N1 [Example 128, (S)-5-{7-[4-(4,5-Dihydro-4-propyl-2-oxazolyl)phenoxy]heptyl}-3-methylisoxazole] | 0.245 (≈ 0.637 µM) | 27.1 |
| Cc1cc(CCCCCOc2ccc(C3=NCCO3)c(Cl)c2Cl)on1 [Example 72, 5-{5-[2,3-Dichloro-4-(4,5-dihydro-2-oxazolyl)phenoxy]pentyl}-3-methylisoxazole] | 0.27 (≈ 0.704 µM) | 0.69 |
| Cc1cc(CCCCCCCOc2ccc(C3=N[C@@H](C(C)C)CO3)cc2)on1 [Example 126, (S)-5-{7-[4-(4,5-Dihydro-4-isopropyl-2-oxazolyl)phenoxy]heptyl}-3-methylisoxazole] | 1.23 (≈ 3.2 µM) | 26.2 |
| Cc1cc(CCCCCOc2c(C)cc(-c3nc(C)c(C)o3)cc2C)on1 [118(c), 5-{5-[4-(4,5-Dimethyl-2-oxazolyl)-2,6-dimethylphenoxy]pentyl}-3-methylisoxazole] | 0.37 (≈ 1 µM) | 0.84 |
| Cc1cc(CCCCCOc2c(C)cc(C3=NCCO3)c(Cl)c2C)on1 [Example 160, 5-{5-[3-Chloro-4-(4,5-dihydro-2-oxazolyl)-2,6-dimethylphenoxy]pentyl}-3-methylisoxazole] | 0.24 (≈ 0.637 µM) | 0.4 |
| CCCC[C@@H]1COC(c2ccc(OCCCCCCCc3cc(C)no3)cc2)=N1 [Example 131, (R)-5-{7-[4-(4-Butyl-4,5-dihydro-2-oxazolyl)phenoxy]heptyl}-3-methylisoxazole] | 1.44 (≈ 3.61 µM) | 2.38 |
| Cc1cc(CCCCCCCOc2ccc(C3=NC(CCl)CO3)cc2)on1 (stereo not drawn) [Example 140, 5-{7-[4-(4-Chloromethyl-4,5-dihydro-2-oxazolyl)phenoxy]heptyl}-3-methylisoxazole] | 0.49 (≈ 1.25 µM) | 26.9 |
| CC[C@H]1COC(c2ccc(OCCCCCCCc3cc(C)no3)cc2)=N1 [Example 124, (S)-5-{7-[4-(4-Ethyl-4,5-dihydro-2oxazolyl)phenoxy]heptyl}-3-methylisoxazole] | 0.36 (≈ 0.972 µM) | 2.4 |
| Cc1cc(CCCCOc2ccc(C3=NC(C)(C)CO3)cc2Cl)on1 [Example 66, 5-{4-[2-Chloro-4-(4,5-dihydro-4,4-dimethyl-2-oxazolyl)phenoxy]butyl}-3-methylisoxazole] | 0.78 (≈ 2.15 µM) | 99 |
| CCCC[C@H]1COC(c2ccc(OCCCCCCCc3cc(C)no3)cc2)=N1 [Example 130, (S)-5-{7-[4-(4-Butyl-4,5-dihydro-2-oxazolyl)phenoxy]heptyl}-3-methylisoxazole] | 1.08 (≈ 2.71 µM) | 2.07 |
| Cc1cc(CCCCCCCOc2ccc(C3=N[C@@H](C)CO3)cc2)on1 [Example 4, (-)-5-{7-[4-(4,5-Dihydro-4-methyl-2oxazolyl)phenoxy]heptyl}-3-methylisoxazole] | 0.025 (≈ 0.0701 µM) | 0.03 |
| Cc1cc(CCCCCOc2ccc(C3=NCCO3)cc2C(C)(C)C)on1 [Example 76, 5-{5-[4-(4,5-Dihydro-2-oxazolyl)-2-(1,1-dimethylethyl)phenoxy]pentyl}-3-methylisoxazole] | 50.1 (≈ 135 µM) | 99 |
